According to patent US20150164866A1, “METHODS OF ADMINISTERING RIFAXIMIN FOR WEIGHT LOSS AND TREATMENT OF OBESITY” (Salix Pharmaceuticals, Ltd, priority 2012, published 2015):

Key:
[1] = Laboratory assessments (lipid profile) pre- and post-treatment in obese patients; format: in vivo, human; conditions: RFX vs. PBO, p<0.04; 550 mg twice daily for 20 days
Excerpt: (§1) Patients were followed for up to six months. The primary endpoint was weight loss at the end of the study. Laboratory assessments including a basic metabolic panel, liver enzymes, lipid profile, and HbA1c (glucose testing) were obtained pre- and post-treatment.
(§2) Baseline demographic characteristics included median age of 45 (range 18-62) years, gender (73% female) average starting weight of 238.5±77.1 lbs and BMI of 38.8±9.7. Common co-morbidities included GERD (37%), hypertension (32%), diabetes (19%), and lipid disorders (14%). […] Weight loss in the rifaximin group was statistically significant (P<0.03) when compared to baseline weight. Diabetics tended to lose more weight (−6.1 lbs), and patients with underlying lipid disorders lost the least (−0.7 lbs).

[2] = system: species of Staphylococcus, Streptococcus, Enterococcus, and Enterobacteriaceae; conditions: in vitro data; cited from earlier work
[3] = Pilot randomized placebo-controlled study of weight loss in obese patients (BMI>30); format: in vivo, human
Excerpt: as §1, §2

Triglycerides difference pre- to post-treatment [1]: +15.9
Structure (SMILES): COC1/C=C/OC2(C)Oc3c(C)c(O)c4c(O)c(c5c(nc6cc(C)ccn65)c4c3C2=O)NC(=O)/C(C)=C\C=C\C(C)C(O)C(C)C(O)C(C)C(OC(C)=O)C1C (stereo not shown) [RFX]
antibacterial activity in vitro [2]: active
mean weight lost ([3]; first study visit following treatment, 550 mg twice daily for 20 days, patients with BMI>30): 1.1 lbs
mean weight lost at the end of the study ([3]; mean follow-up of 4.9 months, 550 mg twice daily for 20 days, P<0.03 compared to baseline weight): 4.5 lbs
weight loss as compared to placebo patients ([3]; obese patients (BMI>30), pilot study): greater weight loss
weight change in diabetics ([3]; subgroup: diabetics, 550 mg twice daily for 20 days): −6.1 lbs
weight change in patients with underlying lipid disorders ([3]; subgroup: underlying lipid disorders, 550 mg twice daily for 20 days): −0.7 lbs
